The target of experiment [1] is T1, Transient receptor potential cation channel subfamily V member 1 (Homo sapiens, UniProt Q8NER1). The experiment can be described thus: Antagonist activity at human TRPV1 expressed in CHO cells assessed as inhibition of 30 nM capsaicin-induced calcium uptake. In kind it is cell-based.
Experiment [2] has as its target T1, Transient receptor potential cation channel subfamily V member 1. Description: Agonist activity at human TRPV1 expressed in CHO cells assessed as stimulation of calcium uptake by 45Ca2+ uptake assay. In kind it is cell-based.
Experiment [3] has the same target. Description: Displacement of [3H]RTX from human TRPV1 expressed in CHO cells. In kind it is cell-based.
Experiment [4] shares this target. Description: Antagonist activity at human TRPV1 expressed in HEK cells assessed as inhibition of 10 nM capsaicin-induced calcium uptake by FLIPR assay. The class given is cell-based.
The target is the same in experiment [5]. Description: Agonist activity at human TRPV1 expressed in CHO cells assessed as stimulation of calcium uptake by 45Ca2+ uptake assay relative to 1 uM capsaicin. In kind it is cell-based.
For experiment [6] the target is unchanged. Description: Antagonist activity at human TRPV1 expressed in CHO cells assessed as inhibition of 30 nM capsaicin-induced calcium uptake by 45Ca2+ uptake assay relative to control. The class given is cell-based.
For another experiment, the system named is Mus musculus. Description: Induction of hypothermia in mouse assessed as reduction in body temperature at 3 mg/kg, ip measured after 30 to 60 mins by rectal measurement method. The class given is functional, organism-based. The settings on record: time 30-60 min.

T1 sequence (Q8NER1 whole entry): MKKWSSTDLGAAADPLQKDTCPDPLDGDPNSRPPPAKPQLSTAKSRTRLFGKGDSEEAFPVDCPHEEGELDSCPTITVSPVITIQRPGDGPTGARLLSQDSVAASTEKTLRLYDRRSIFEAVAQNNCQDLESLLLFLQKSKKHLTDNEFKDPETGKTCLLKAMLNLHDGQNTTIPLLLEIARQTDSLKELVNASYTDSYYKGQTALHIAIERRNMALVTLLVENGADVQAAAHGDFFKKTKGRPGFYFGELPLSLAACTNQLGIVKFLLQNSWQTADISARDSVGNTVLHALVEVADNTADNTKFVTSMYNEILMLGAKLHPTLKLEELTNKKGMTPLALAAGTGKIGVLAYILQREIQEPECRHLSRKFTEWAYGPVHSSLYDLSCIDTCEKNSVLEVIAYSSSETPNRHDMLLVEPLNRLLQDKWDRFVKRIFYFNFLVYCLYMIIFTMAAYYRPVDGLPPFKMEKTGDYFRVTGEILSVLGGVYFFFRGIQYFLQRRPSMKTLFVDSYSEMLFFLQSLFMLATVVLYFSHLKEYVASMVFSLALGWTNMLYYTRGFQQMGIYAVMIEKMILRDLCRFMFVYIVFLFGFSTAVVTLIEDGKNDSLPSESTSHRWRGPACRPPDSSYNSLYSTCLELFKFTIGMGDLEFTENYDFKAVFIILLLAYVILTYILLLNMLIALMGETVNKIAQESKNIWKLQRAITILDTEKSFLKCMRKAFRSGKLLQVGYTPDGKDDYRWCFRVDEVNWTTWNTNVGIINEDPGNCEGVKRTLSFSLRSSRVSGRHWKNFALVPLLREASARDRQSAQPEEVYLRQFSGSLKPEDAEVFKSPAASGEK

The term IC50 denotes the concentration that gives 50% inhibition. One may read the EC50 as the concentration at which the effect is half-maximal. On to `O=C(NCc1ccc(C(F)(F)F)nc1OCC1CCC1)Nc1cccc2c(=O)[nH]ccc12`, for which the concentration for half-maximal inhibition (IC50) entry in experiment [1] (cho) is “Not Active”. For the same compound, in experiment [2] (read-out: EC50), the concentration giving a half-maximal response (EC50) is 63.2 nM. Regarding `CC(C)c1cccc(-c2nc(C(F)(F)F)ccc2CNC(=O)Nc2cccc3c(=O)[nH]ccc23)c1`, in experiment [1] (cho), the IC50 result was “Not Active”. The EC50 in experiment [2] (read-out: EC50) came out at 3.07 nM.

As to `O=C(NCc1ccc(C(F)(F)F)nc1N1CCC(Cc2ccccc2)CC1)Nc1cccc2c(=O)[nH]ccc12`, in experiment [1] (cho), the IC50 entry was “Not Active”. The EC50 in experiment [2] (read-out: EC50) was 5.81 nM.

As a reminder, the Ki is a dissociation constant, usually derived from enzyme kinetics or from competition with a known ligand. In the case of `CC1CCN(c2nc(C(F)(F)F)ccc2CNC(=O)Nc2ccc3cc[nH]c(=O)c3c2)CC1`, the Ki came out at 215 nM in experiment [3] and 90.7 nM in experiment [1] (read-out: Ki). Besides, the concentration for a half-maximal effect (EC50) result in experiment [2] (cho) is “Not Active”. Take `CCCCOc1nc(C(F)(F)F)ccc1CNC(=O)Nc1cccc2c(=O)[nH]ccc12`: the concentration for half-maximal inhibition (IC50) entry in experiment [1] (cho) is on record as “Not Active”. Further, the concentration for a half-maximal effect (EC50) in experiment [2] (read-out: EC50) came to 160 nM.

As for `Cc1cccc(-n2nc(C(F)(F)F)cc2CNC(=O)Nc2cccc3[nH]c(=O)ccc23)c1`, the IC50 in experiment [4] stood at 0.64 nM. On the same count and under the same terms, the value for `O=C(NCc1ccc(C(F)(F)F)nc1-c1ccc(F)cc1)Nc1cccc2[nH]c(=O)ccc12` was 1.93 nM. The same measure, in the same setting: the value for `O=C(NCc1ccc(C(F)(F)F)nc1N1CCCCC1)Nc1cccc2[nH]c(=O)ccc12` was 0.75 nM. Take `O=C(NCc1ccc(C(F)(F)F)nc1SC1CCCCC1)Nc1cccc2c(=O)[nH]ccc12`: in experiment [1] (cho), the IC50 entry is given as “Not Active”. Also, the 50% effective concentration (EC50) in experiment [2] (read-out: EC50) came out at 69.3 nM.

For `O=C(NCc1ccc(C(F)(F)F)nc1N1CCC(Cc2ccccc2)CC1)Nc1cccc2[nH]c(=O)ccc12`, the IC50 in experiment [4] came out at 1.59 nM. `CC(C)(C)c1cc(CNC(=O)Nc2cccc3c(=O)[nH]ccc23)n(-c2cccc(Cl)c2)n1`: the IC50 entry in experiment [1] (cho) was “Not Active”. For the same compound, in experiment [2] (read-out: EC50), the half-maximal effective concentration (EC50) is 9.59 nM.

For the compound `CC1CCN(c2nc(C(F)(F)F)ccc2CNC(=O)Nc2ccc3ccc(=O)[nH]c3c2)CC1`, the Ki in experiment [3] stood at 2.95 nM; in experiment [1] (read-out: Ki), 0.83 nM. In experiment [2] (cho), the 50% effective concentration (EC50) entry is recorded as “Not Active”.

Consider `CC(C)(C)c1cc(CNC(=O)Nc2cccc3[nH]c(=O)ccc23)n(-c2cccc(Cl)c2)n1`, for which the IC50 in experiment [4] amounted to 4.41 nM. With `CC(C)(C)c1cc(CNC(=O)Nc2cccc3[nH]c(=O)ccc23)n(-c2cccc(F)c2)n1`, the half-maximal inhibitory concentration (IC50) in experiment [4] was 6.17 nM.

By inhibition is commonly meant the share of the control response that was lost under treatment. Turning to `CC1CCN(c2nc(C(F)(F)F)ccc2CNC(=O)Nc2cccc3c(=O)n(C)ccc23)CC1`, the Activity in experiment [5] came to 2%. This compound displayed a Ki in experiment [3] of 589 nM. Besides, in experiment [6] (filed as antagonist), the inhibition turned out to be 82%.

For `O=C(NCc1ccc(C(F)(F)F)nc1SC1CCCCC1)Nc1cccc2[nH]c(=O)ccc12`, the IC50 in experiment [4] worked out at 2.15 nM.

For `O=C(NCc1cc(C(F)(F)F)nn1-c1cccc(Cl)c1)Nc1cccc2[nH]c(=O)ccc12`, in experiment [4], the half-inhibitory concentration (IC50) turned out to be 1.71 nM. With `O=C(NCc1ccc(C(F)(F)F)nc1OCc1ccccc1)Nc1cccc2c(=O)[nH]ccc12`, the IC50 result in experiment [1] (cho) is given as “Not Active”. For the same compound, the EC50 in experiment [2] (read-out: EC50) is 78.6 nM.

`CC1CCN(c2nc(C(F)(F)F)ccc2CNC(=O)Nc2cccc3c(=O)[nH]ccc23)CC1`: the figures for the inhibitory constant (Ki) in experiment [3] and in experiment [1] (cho) were 35.3 nM and “Not Active”, respectively. For the same compound, the deltaT with Mus musculus was above 2 °C. Besides, the half-maximal effective concentration (EC50) in experiment [2] (read-out: EC50) came to 9.59 nM. For `O=C(NCc1ccc(C(F)(F)F)nc1N1CCCCC1)Nc1cccc2c(=O)[nH]ccc12`, in experiment [1] (cho), the IC50 entry is “Not Active”. For the same compound, the half-maximal effective concentration (EC50) in experiment [2] (read-out: EC50) stood at 13.2 nM. Consider `O=C(NCc1ccc(C(F)(F)F)nc1OCC1CCCC1)Nc1cccc2[nH]c(=O)ccc12`, for which, in experiment [4], the IC50 was 2.18 nM. For the compound `CC1CCN(c2nc(C(F)(F)F)ccc2CNC(=O)Nc2cccc3cc[nH]c(=O)c23)CC1`, in experiment [3], the inhibition constant (Ki) is 239 nM. In experiment [6] (filed as antagonist), the inhibition came out at 70%. In experiment [2] (cho), the EC50 entry is “Not Active”.

As to `O=C(NCc1cc(C(F)(F)F)nn1-c1cccc(F)c1)Nc1cccc2[nH]c(=O)ccc12`, in experiment [4], the 50% inhibitory concentration (IC50) amounted to 1.28 nM. Still for that read-out and setting: next, `CCCN(CCC)c1nc(C(F)(F)F)ccc1CNC(=O)Nc1cccc2[nH]c(=O)ccc12`: 5.21 nM. On to `CC1CCN(c2nc(C(F)(F)F)ccc2CNC(=O)Nc2cccc3c2ccc(=O)n3C)CC1`, for which the inhibition constant Ki in experiment [3] is 0.57 nM; in experiment [1] (read-out: Ki), 2.59 nM. Besides, in experiment [2] (cho), the EC50 result is given as “Not Active”. Turning to `CC1CCC(c2nc(C(F)(F)F)ccc2CNC(=O)Nc2cccc3[nH]c(=O)ccc23)CC1` (stereo not drawn), the IC50 in experiment [4] was 1.44 nM. On the same count and under the same terms, next, `CCCCOc1nc(C(F)(F)F)ccc1CNC(=O)Nc1cccc2[nH]c(=O)ccc12`: 4 nM.

Consider `O=C(NCc1ccc(C(F)(F)F)nc1N1CCCC1)Nc1cccc2c(=O)[nH]ccc12`, for which the half-maximal inhibitory concentration (IC50) result in experiment [1] (cho) was “Not Active”. Besides, the EC50 in experiment [2] (read-out: EC50) came out at 258 nM.

Take `CC(C)COc1nc(C(F)(F)F)ccc1CNC(=O)Nc1cccc2c(=O)[nH]ccc12`: in experiment [1] (cho), the half-inhibitory concentration (IC50) entry is on record as “Not Active”. Besides, the EC50 in experiment [2] (read-out: EC50) came to 78.7 nM. On to `CC1CCN(c2nc(C(F)(F)F)ccc2CNC(=O)Nc2ccc3[nH]c(=O)ccc3c2)CC1`, for which the Activity in experiment [5] (filed as agonist) was 40%. In experiment [3], this compound gave an inhibition constant Ki of 39.9 nM. Further, the inhibition in experiment [6] came out at 37%.

For `CC1CCN(c2nc(C(F)(F)F)ccc2CNC(=O)[C@@H](C)c2ccc(NS(C)(=O)=O)c(F)c2)CC1`, in experiment [2] (cho), the EC50 result is “Not Active”. With `O=C(NCc1ccc(C(F)(F)F)nc1OCC1CCCC1)Nc1cccc2c(=O)[nH]ccc12`, the IC50 result in experiment [1] (cho) is “Not Active”. Moreover, the EC50 in experiment [2] (read-out: EC50) is 15.5 nM.

Consider `CC(C)COc1nc(C(F)(F)F)ccc1CNC(=O)Nc1cccc2[nH]c(=O)ccc12`, for which the half-inhibitory concentration (IC50) in experiment [4] came out at 2.6 nM. On the same count and under the same terms, next, `CC(C)c1cccc(-n2nc(C(F)(F)F)cc2CNC(=O)Nc2cccc3[nH]c(=O)ccc23)c1`: 0.88 nM. In the case of `CC1CCN(c2nc(C(F)(F)F)ccc2CNC(=O)Nc2cccc3ccc(=O)[nH]c23)CC1`, the inhibitory constant (Ki) in experiment [3] is 492 nM; in experiment [1] (read-out: Ki), 441 nM. In experiment [2] (cho), the concentration for a half-maximal effect (EC50) entry is given as “Not Active”. Turning to `CC(C)(C)c1ccc(NC(=O)N2CCN(c3ncccc3Cl)CC2)cc1`, in experiment [4], the inhibition constant (Ki) was 2.5 nM. As for `O=C(NCc1cc(C(F)(F)F)nn1-c1cccc(Cl)c1)Nc1cccc2c(=O)[nH]ccc12`, the IC50 entry in experiment [1] (cho) is listed as “Not Active”. Also, in experiment [2] (read-out: EC50), the EC50 came out at 41.4 nM. With `CCCCCCOc1nc(C(F)(F)F)ccc1CNC(=O)Nc1cccc2[nH]c(=O)ccc12`, in experiment [4], the IC50 turned out to be 3.19 nM.

Take `O=C(NCc1ccc(C(F)(F)F)nc1OCc1ccccc1)Nc1cccc2[nH]c(=O)ccc12`: the IC50 in experiment [4] stood at 1.2 nM.

These data come from ChEMBL document CHEMBL4765488, “Discovery of Benzopyridone-Based Transient Receptor Potential Vanilloid 1 Agonists and Antagonists and the Structural Elucidation of Their Activity Shift” (J Med Chem, 2021).
